Consider two compounds from patent US4857507A, “Angiotensinogen analogs” (Abbott Laboratories, priority 1987, dated 1989).

The assay has as its target T1, human renal renin (Homo sapiens, UniProt P00797).
T1 construct: human renal renin, free from acid proteolytic activity; from tissue; host or cells: human kidney (from the word 'renal')
T1 sequence (P00797 67-406): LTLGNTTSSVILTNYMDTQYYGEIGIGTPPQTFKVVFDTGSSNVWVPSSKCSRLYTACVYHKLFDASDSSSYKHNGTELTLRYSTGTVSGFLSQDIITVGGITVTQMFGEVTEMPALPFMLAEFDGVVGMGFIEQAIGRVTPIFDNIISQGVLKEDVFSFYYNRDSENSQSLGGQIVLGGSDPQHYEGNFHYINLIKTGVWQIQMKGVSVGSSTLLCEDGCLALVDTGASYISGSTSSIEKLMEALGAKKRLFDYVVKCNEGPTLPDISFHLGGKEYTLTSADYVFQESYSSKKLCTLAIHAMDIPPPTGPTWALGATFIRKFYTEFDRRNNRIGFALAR
Briefly: inhibition of human renal renin in vitro, angiotensin I formed measured by radioimmunoassay. The format is biochemical. Conditions: human renal renin with human renin substrate (angiotensinogen), 37° C., pH 6.0. How it is done:
At the end of the incubation, the amount of angiotensin I formed is measured by radioimmunoassay and the molor concentration required to cause 50% inhibition, expressed as the IC50, is calculated.

A word on the IC50: it is the concentration that gives 50% inhibition. High values mean weaker potency, low ones greater potency. As for `CC(C)CC(NC(=O)C(Cc1ccccc1)NC(=O)OC(C)(C)C)C(=O)N[C@@H](CC1CCCCC1)C(=O)C(F)(F)CS(=O)(=O)C(C)C` (stereo partly drawn) [Example 95, Boc-Phe-Leu amide of (4S)-3-oxo-4-amino-2,2-difluoro-1-isopropylsulfonyl-5-cyclohexylpentane], the IC50 amounted to 1 nM. This lies in the single-digit nanomolar range. As for `CC(C)CC(NC(=O)C(Cc1ccccc1)NC(=O)OC(C)(C)C)C(=O)N[C@@H](CC1CCCCC1)C(=O)C(F)(F)CSC(C)C` (stereo partly drawn) [Example 93, Boc-Phe-Leu amide of (4S)-3-oxo-4-amino-2,2-difluoro-1-isopropylmercapto-5-cyclohexylpentane], the figure is 2.5 nM.
